Results on five compounds are retold here after US10301288B2, “Kinase inhibitors” (Topivert Pharma Limited, priority 2013, dated 2019).

The test system of one assay is HT29 cells. Kind of assay: (d) IL-1β-induced IL-8 release in HT29 cells. The assay is classed as cell-based. As to conditions: Homo sapiens, HT-29, read-out: IC50 for Inhibition of Cytokine Release, IL-8. The protocol: HT29 cells, a human colon adenocarcinoma cell line, are plated in a 96 well plate (24 hrs) and pre-treated with compounds at the desired concentration for 2 hours before addition of 5 ng/ml of IL-1β (Abeam) for 24 hours. Supernatants are harvested for IL-8 quantification by Sandwich ELISA (Duo-set, R&D System). The IC50 is determined from the dose response curve.

A further assay has as its target c-Src (Homo sapiens (Human), UniProt P12931). In words: c-Src enzyme inhibition (FRET). The assay is classed as biochemical. The protocol: (§1) The enzyme inhibitory activities of compounds disclosed herein are determined by FRET using synthetic peptides labelled with both donor and acceptor fluorophores (Z-LYTE, Invitrogen Ltd., Paisley, UK).
(§2) The inhibitory activities of compounds of the invention against c-Src and Syk enzymes (Invitrogen), are evaluated in a similar fashion to that described hereinabove. The relevant enzyme (3000 ng/mL or 2000 ng/mL respectively, 2.5 μL) is incubated with the test compound (either 4 μg/mL, 0.4 μg/mL, 0.04 μg/mL, or 0.004 μg/mL, 2.5 μL each) for 2 hr at RT. The FRET peptides (8 μM. 2.5 μL), and appropriate ATP solutions (2.5 μL, 800 μM for c-Src, and 60 μM ATP for Syk) are then added to the enzymes/compound mixtures and incubated for 1 hr. Development reagent (protease, 5 μL) is added for 1 hr prior to detection in a fluorescence microplate reader (Varioskan® Flash, ThermoFisher Scientific).
(§3) In all cases, the site-specific protease cleaves non-phosphorylated peptide only and eliminates the FRET signal. Phosphorylation levels of each reaction are calculated using the ratio of coumarin emission (donor) over fluorescein emission (acceptor), for which high ratios indicate high phosphorylation and low ratios indicate low phosphorylation levels.

Assay [1] has as its system PBMCs. Kind of assay: (b) LPS-induced TNFα/IL-8 release in PBMC cells. The format is cell-based. As to conditions: Homo sapiens, read-out: IC50 for Inhibition of Cytokine Release, IL-8. The protocol: Peripheral blood mononuclear cells (PBMCs) from healthy subjects are separated from whole blood using a density gradient (Lymphoprep, Axis-Shield Healthcare). The PBMCs are seeded in 96 well plates and treated with compounds at the desired concentration for 2 hours before addition of 1 ng/ml LPS (Escherichia Coli 0111:B4 from Sigma Aldrich) for 24 hours under normal tissue culture conditions (37° C., 5% CO2). The supernatant is harvested for determination of IL-8 and TNFα concentrations by sandwich ELISA (Duo-set, R&D systems) and read on the fluorescence microplate reader (Varioskan® Flash, ThermoFisher Scientific).

A further assay deals with GSK3α (Homo sapiens (Human), UniProt P49840). Kind of assay: GSK 3α enzyme inhibition (FRET, Method 2). The format is biochemical. As to the method: as §1
Sequence of GSK3α (P49840 whole entry, canonical isoform): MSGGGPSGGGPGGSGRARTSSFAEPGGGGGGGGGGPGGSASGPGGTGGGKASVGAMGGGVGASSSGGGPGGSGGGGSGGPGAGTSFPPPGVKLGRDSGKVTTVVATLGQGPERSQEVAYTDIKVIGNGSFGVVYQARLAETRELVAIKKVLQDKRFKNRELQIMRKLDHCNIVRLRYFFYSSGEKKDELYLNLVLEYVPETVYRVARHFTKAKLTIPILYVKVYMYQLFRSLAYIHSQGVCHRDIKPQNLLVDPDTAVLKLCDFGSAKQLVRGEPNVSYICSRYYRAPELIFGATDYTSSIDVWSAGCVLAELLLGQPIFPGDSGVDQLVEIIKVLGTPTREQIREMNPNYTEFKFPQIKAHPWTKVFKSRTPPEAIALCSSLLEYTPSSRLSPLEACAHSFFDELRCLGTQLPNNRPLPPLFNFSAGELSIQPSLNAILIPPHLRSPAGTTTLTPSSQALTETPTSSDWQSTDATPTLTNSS
The inhibitory activities of compounds of the invention against the GSK 3α enzyme isoform (Invitrogen), are evaluated by determining the level of activation/phosphorylation of the target peptide. The GSK3-α protein (500 ng/mL, 2.5 μL) is mixed with the test compound (2.5 μL at either 4 μg/mL, 0.4 μg/mL, 0.04 μg/mL, or 0.004 μg/mL) for 2 hr at RT. The FRET peptide (8 μM, 2.5 μL), which is a phosphorylation target for GSK3α, and ATP (40 μM, 2.5 μL) are then added to the enzyme/compound mixture and the resulting mixture incubated for 1 hr. Development reagent (protease, 5 μL) is added for 1 hr prior to detection in a fluorescence microplate reader (Varioskan® Flash, ThermoFisher Scientific).
as §3

For assay [2], the system named is PBMCs. Kind of assay: (c) IL-2 and IFN gamma release in CD3/CD28 stimulated PBMC cells. The format is cell-based. As to conditions: Homo sapiens. As to the method:
PBMCs from healthy subjects are separated from whole blood using a density gradient (Lymphoprep, Axis-Shield Healthcare). Cells are added to a 96 well plate pre-coated with a mixture of CD3/CD28 monoclonal antibodies (0.3 ug/ml eBioscience and 3 ug/ml BD Pharmingen respectively). Compound at the desired concentration is then added to the wells and the plate left for 3 days under normal tissue culture conditions. […] The IC50 is determined from the dose response curve.

In assay [3] the test system is PBMCs. In words: (i) Cell mitosis assay in PBMCs. The settings on record: Homo sapiens, PBMC, 5 μg/mL. The format is cell-based. As to the method:
PBMCs from healthy subjects are separated from whole blood (Quintiles, London, UK) using a density gradient (Histopaque®-1077, Sigma-Aldrich, Poole, UK). The PBMCs (3 million cells per sample) are subsequently treated with 2% PHA (Sigma-Aldrich, Poole, UK) for 48 hr, followed by a 20 hr exposure to varying concentrations of test compounds. At 2 hr before collection, PBMCs are treated with demecolcine (0.1 μg/mL; Invitrogen, Paisley, UK) to arrest cells in metaphase. […] Fluorescence is observed using an ATTUNE flow cytometer (Invitrogen, Paisley, UK), gating for lymphocytes.

The next assay has as its target p38 MAPKα (Homo sapiens (Human), UniProt Q16539). Kind of assay: p38 MAPKα enzyme inhibition (FRET, Method 2). The assay is classed as biochemical. The protocol: as §1
The inhibitory activities of test compounds against the p38 MAPKα isoform (MAPK14: Invitrogen), are evaluated indirectly by determining the level of activation/phosphorylation of the down-stream molecule, MAPKAP-K2. The p38 MAPKα protein (80 ng/mL, 2.5 μL) is mixed with the test compound (2.5 μL of either 4 μg/mL, 0.4 μg/mL, 0.04 μg/mL or 0.004 μg/mL) for 2 hr at RT. […] The mixture is incubated for 1 hr at RT. Development reagent (protease, 5 μL) is added for 1 hr prior to detection in a fluorescence microplate reader (Varioskan® Flash, ThermoFisher Scientific).
as §3

The next assay concerns the target Syk (Homo sapiens (Human), UniProt P43405). Kind of assay: Syk enzyme inhibition (FRET). The format is biochemical. As to the method:
as §1, §2, §3

A further assay has as its system β-catenin. In words: (m) Accumulation of β catenin in d-U937 cells. The format is cell-based, human. As to conditions: Reference Compound at 1 μg/mL defined as 100%. As to the method:
U937 cells, a human monocytic cell line, are differentiated into macrophage-type cells by incubation with PMA; (100 ng/mL) for between 48 to 72 hr. The cells are then incubated with either final concentrations of test compound or vehicle for 18 hr. The induction of β-catenin by the test compounds is stopped by replacing the media with 4% formaldehyde solution. Endogenous peroxide activity is neutralised by incubating with quenching buffer (100 μL, 0.1% sodium azide, 1% H2O2 in PBS with 0.05% Tween-20) for 20 min. The cells are washed with washing buffer (200 μL; PBS containing 0.05% Tween-20) and incubated with blocking solution (200 μL; 5% milk in PBS) for 1 hr, re-washed with washing buffer (200 μL) and then incubated overnight with anti-β-catenin antibody solution (50 μL) in 1% BSA/PBS (BD, Oxford, UK).
After washing with washing buffer (3×200 μL; PBS containing 0.05% Tween-20), cells are incubated with an HRP-conjugated secondary antibody solution (100 μL) in 1% BSA/PBS (Dako, Cambridge, UK) and the resultant signal is determined colourimetrically (OD: 450 nm with a reference wavelength of 655 nm) using TMB substrate (50 μL; R&D Systems, Abingdon, UK). This reaction is stopped by addition of 1N H2SO4 solution (50 μL). Cells are then washed with washing buffer and 2% crystal violet solution (50 μL) is applied for 30 min. After washing with washing buffer (3×200 μL), 1% SDS (100 μL) is added to each well and the plates are shaken lightly for 1 hr prior to measuring the absorbance at 595 nm (Varioskan® Flash, Thermo-Fisher Scientific).
The measured OD450-655 readings are corrected for cell number by dividing the OD450-655 by the OD595 readings.

[4] abbreviates: read-out: IC50 for Inhibition of Cytokine Release, IFNγ.
Where [5] appears, read: read-out: IC50 for Inhibition of Cytokine Release, IL-2.

Sequence of c-Src (P12931 whole entry, looked up): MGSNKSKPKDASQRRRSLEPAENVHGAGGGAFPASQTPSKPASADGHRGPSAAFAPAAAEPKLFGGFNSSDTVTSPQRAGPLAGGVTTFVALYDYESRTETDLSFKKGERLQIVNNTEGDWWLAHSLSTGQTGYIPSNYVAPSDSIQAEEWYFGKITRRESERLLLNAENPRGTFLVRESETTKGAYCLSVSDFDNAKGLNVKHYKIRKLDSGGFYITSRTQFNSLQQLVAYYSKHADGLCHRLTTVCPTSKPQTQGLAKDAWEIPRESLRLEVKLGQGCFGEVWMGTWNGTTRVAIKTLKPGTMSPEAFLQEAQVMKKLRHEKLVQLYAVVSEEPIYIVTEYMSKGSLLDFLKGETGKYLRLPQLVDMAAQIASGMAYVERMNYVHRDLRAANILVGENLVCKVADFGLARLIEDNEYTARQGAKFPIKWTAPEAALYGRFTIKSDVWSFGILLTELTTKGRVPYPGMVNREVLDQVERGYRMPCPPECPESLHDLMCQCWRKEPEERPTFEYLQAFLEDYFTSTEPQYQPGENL
Sequence of p38 MAPKα (Q16539 whole entry, canonical isoform): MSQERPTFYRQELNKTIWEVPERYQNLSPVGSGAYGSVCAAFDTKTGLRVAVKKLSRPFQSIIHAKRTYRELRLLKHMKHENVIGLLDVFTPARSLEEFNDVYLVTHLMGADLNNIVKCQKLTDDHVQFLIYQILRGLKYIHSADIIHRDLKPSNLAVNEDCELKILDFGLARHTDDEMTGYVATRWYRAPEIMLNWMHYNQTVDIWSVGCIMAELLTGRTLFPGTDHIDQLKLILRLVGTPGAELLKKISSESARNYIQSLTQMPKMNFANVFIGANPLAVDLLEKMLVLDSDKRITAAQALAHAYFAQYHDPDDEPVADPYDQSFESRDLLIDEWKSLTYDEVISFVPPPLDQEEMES

For orientation: IC50 means the concentration needed to halve the response being measured. Usually inhibition stands for how much of the control response was suppressed. On to `C#Cc1cc(Nc2nccc(Oc3ccc(NC(=O)Nc4cc(C(C)(C)C)nn4-c4ccc(C)cc4)c4ccccc34)n2)cc(C(=O)NCCOCCOC)c1` [Example 8, 3-((4-((4-(3-(3-(tert-Butyl)-1-(p-tolyl)-1H-pyrazol-5-yl)ureido)naphthalen-1-yl)oxy)pyrimidin-2-yl)amino)-5-ethynyl-N-(2-(2-methoxyethoxy)ethyl)benzamide], for which the IC50 in the assay on HT29 cells turned out to be 0.0032 µM; on c-Src, 0.02 µM; in the assay with PBMCs [1] it was 0.0016 µM; on GSK3α it was 2.89 µM; with PBMCs [2] (setting [4]), 0.0085 µM; in the assay on PBMCs [2] (setting [5]), 0.055 µM. For the same compound, the IC50 came to 0.104 µM at p38 MAPKα and 0.12 µM against Syk. Also, the inhibition at 5 µg/mL in the assay on PBMCs [3] was found to be 6.1%. The “% β-catenin induction” value in the assay with β-catenin (1 μg/mL) is 6%; with β-catenin (5 μg/mL) it was 3%; in the assay on β-catenin (10 μg/mL) it was 2%.

As to `C#Cc1cc(Nc2nccc(Oc3ccc(NC(=O)Nc4cc(C(C)(C)C)nn4-c4ccc(C)cc4)c4ccccc34)n2)cc(C(=O)NCCOCCOCCOCCOC)c1` [Example 7, 3-((4-((4-(3-(3-(tert-Butyl)-1-(p-tolyl)-1H-pyrazol-5-yl)ureido)naphthalen-1-yl)oxy)pyrimidin-2-yl)amino)-5-ethynyl-N-(2,5,8,11-tetraoxatridecan-13-yl)benzamide], the IC50 in the assay on HT29 cells amounted to 0.0016 µM; against c-Src, 0.018 µM; in the assay on PBMCs [1], 0.0024 µM; against GSK3α, 2.02 µM; in the assay on PBMCs [2] (setting [4]), 0.0037 µM; with PBMCs [2] (setting [5]), 0.091 µM. The IC50 is 0.088 µM on p38 MAPKα and 0.237 µM against Syk. This compound also gave an inhibition at 5 µg/mL with PBMCs [3] of 9.1%. The “% β-catenin induction” value with β-catenin (1 μg/mL) is reported as 0%; in the assay with β-catenin (5 μg/mL), −2%; in the assay on β-catenin (10 μg/mL) it was −5%.

As for `C#Cc1cc(Nc2nccc(Oc3ccc(NC(=O)Nc4cc(C(C)(C)C)nn4-c4ccc(OC)cc4)c4ccccc34)n2)cc(C(=O)NCCOCCOCCOC)c1` [Example 3, 3-((4-((4-(3-(3-(tert-Butyl)-1-(4-methoxyphenyl)-1H-pyrazol-5-yl)ureido)-naphthalen-1-yl)oxy)pyrimidin-2-yl)amino)-5-ethynyl-N-(2-(2-(2-methoxyethoxy)-ethoxy)ethyl)benzamide], the IC50 stood at 0.014 µM against c-Src; 0.0012 µM in the assay on PBMCs [1]; 12.2 µM on GSK3α; 0.002 µM in the assay on PBMCs [2] (setting [4]); 0.0075 µM with PBMCs [2] (setting [5]); 0.039 µM on p38 MAPKα. For the same compound, the 50% inhibitory concentration (IC50) at Syk was 0.03 µM. In the assay with PBMCs [3], this compound came in with an inhibition at 5 µg/mL of 2.1%. For the same compound, the “% β-catenin induction” value in the assay on β-catenin (1 μg/mL) was found to be 1%; with β-catenin (5 μg/mL) it was 6%; in the assay with β-catenin (10 μg/mL), 6%.

For `C#Cc1cc(Nc2nccc(Oc3ccc(NC(=O)Nc4cc(C(C)(C)C)nn4-c4ccc(OC)cc4)c4ccccc34)n2)cc(C(=O)NCCOCCOC)c1` [Example 5, 3-((4-((4-(3-(3-(tert-Butyl)-1-(4-methoxyphenyl)-1H-pyrazol-5-yl)ureido)-naphthalen-1-yl)oxy)pyrimidin-2-yl)amino)-5-ethynyl-N-(2-(2-methoxyethoxy)ethyl)-benzamide], the IC50 against c-Src is 0.013 µM; in the assay with PBMCs [1], 0.0012 µM; against GSK3α, 13 µM; in the assay with PBMCs [2] (setting [4]), 0.0017 µM; in the assay on PBMCs [2] (setting [5]) it was 0.0521 µM; at p38 MAPKα, 0.033 µM. On Syk, it took 0.034 µM to reach half-maximal inhibition (IC50). Moreover, in the assay on PBMCs [3], 5 µg/mL produced 10.4% inhibition. The entries for the “% β-catenin induction” value with β-catenin (1 μg/mL), in the assay on β-catenin (5 μg/mL) and in the assay with β-catenin (10 μg/mL) were 8%, 2% and 3%, respectively.

Regarding `[2H]c1c([2H])c(C([2H])([2H])[2H])c([2H])c([2H])c1-n1nc(C(C)(C)C)cc1NC(=O)Nc1ccc(Oc2ccnc(Nc3cc(C#C)cc(C(=O)NCCOCCOCCOC)c3)n2)c2ccccc12` [Example 6, 3-((4-((4-(3-(3-(tert-Butyl)-1-(2,3,5,6-tetradeutero-4-(trideuteromethyl)-phenyl)-1H-pyrazol-5-yl)ureido)naphthalen-1-yl)oxy)pyrimidin-2-yl)amino)-5-ethynyl-N-(2-(2-(2-methoxyethoxy)ethoxy)ethyl)benzamide], the concentration for half-maximal inhibition (IC50) with HT29 cells came out at 0.0024 µM; on c-Src, 0.017 µM; with PBMCs [1], 0.0023 µM; in the assay on PBMCs [2] (setting [4]) it was 0.0029 µM; with PBMCs [2] (setting [5]) it was 0.123 µM; at Syk, 0.096 µM. In addition, the inhibition at 5 µg/mL in the assay on PBMCs [3] is 10.2%. Besides, the “% β-catenin induction” value with β-catenin (1 μg/mL) is recorded as 3%; in the assay with β-catenin (5 μg/mL) it was 3%; in the assay on β-catenin (10 μg/mL), −1%.
